Measurements as given in patent US11801226B2, “Pharmaceutical formulation of odevixibat” (Albireo AB, priority 2018, dated 2023).
≈ marks a conversion by molar mass, not a printed value.

Legend:
Format in all cases: physicochemical
[1] = Water content / hygroscopicity of crystal modification 1 versus relative humidity
Source text: Crystal modification 1 of odevixibat cannot only be obtained from a mixture of water and ethanol, as described above, but also from a slurry of odevixibat in a mixture of water and an organic solvent selected from the group consisting of methanol, 2-propanol, acetone, acetonitrile, 1,4-dioxane, DMF and DMSO. Upon drying of the different mixed solvates obtained under these conditions (crystal modification 2), the same crystalline hydrate of odevixibat is obtained, namely crystal modification 1. Crystal modification 1 contains void volumes that are capable of containing up to about 2 moles of water associated with the crystal per mole of odevixibat, depending on the relative humidity. This form is therefore formally a channel hydrate. At about 30% relative humidity, however, crystal modification 1 contains a substantially stoichiometric amount of about 1.5 moles of water per mole of organic compound and is thus a sesquihydrate. The substantially stoichiometric amount of water is considered advantageous, as the water content of the crystals remains substantially constant even with humidity changes within the normal relative humidity range of about 30% to about 70% RH.
Whereas crystal modification 1 is a sesquihydrate containing about 3.5% (w/w) water at about 30% relative humidity (based on the total crystal weight), it has been observed that the crystal can take up an additional 1.5% (w/w) water when the humidity is increased up to 95% RH. The sorption and desorption of this additional water is fully reversible. The additional water may be adsorbed on the surface or may further fill the channels of the structure. In some embodiments, the term “overhydrated” refers to crystal modification 1 containing from about 1.5 to about 4 moles of water per mole of odevixibat, such as from about 1.5 to about 3.5, or such as from about 1.5 to 3, or such as from about 1.5 to about 2.5, or such as from about 1.5 to about 2 moles of water per mole of odevixibat. In some embodiments, the term “overhydrated” refers to crystal modification 1 containing from about 2 to about 4 moles of water per mole of odevixibat, such as from about 2 to about 3.5, or such as from about 2 to about 3, or such as from about 2 to 2.5 moles of water per mole of odevixibat.

[2] = Solubility of odevixibat in water; conditions: pH 7, 37° C.
Source text: It is desirable that the use of organic solvents in the preparation of the formulation is avoided. In some embodiments, water is used as the solvent for the preparation of the formulation. […] Because of this low solubility in water, aqueous suspensions of odevixibat can contain larger agglomerates of odevixibat, which may lead to an uneven distribution of the active pharmaceutical ingredient on the cores, i.e. the cores may contain different amounts of odevixibat, which in turn impacts dose uniformity. Accordingly, in some embodiments, the aqueous suspension of odevixibat is homogeneous. In some embodiments, a homogeneous aqueous suspension of odevixibat is sprayed onto the cores.

[3] = Particle size distribution of crystalline odevixibat drug substance; conditions: typical value, crystalline material
Source text: Crystalline odevixibat was used. Typical values for the particle size distribution of the crystalline material were d10=0.9 μm, d50=4 μm and d90=20 μm, wherein d10, d50 and d90 are defined as the diameters where 10%, 50% and 90%, respectively, of the particle population lies below these values. […]

SMILES	water content ([1]; about 30% relative humidity)	water content of crystal ([1]; about 30% relative humidity, based on total crystal weight)	hygroscopicity ([1]; between about 30 and about 70% RH)	additional water taken up ([1]; humidity increased up to 95% RH, fully reversible)	solubility [2] [µg/mL]	particle size distribution d10 [3] [μm]	particle size distribution d50 [3] [μm]	particle size distribution d90 [3] [μm]
CCCCC1(CCCC)CN(c2ccccc2)c2cc(SC)c(OCC(=O)N[C@@H](C(=O)N[C@@H](CC)C(=O)O)c3ccc(O)cc3)cc2S(=O)(=O)N1 [crystal modification 1]	about 1.5 moles of water per mole of organic compound	about 3.5 % (w/w)	relatively low hygroscopicity	1.5 % (w/w)				
CCCCC1(CCCC)CN(c2ccccc2)c2cc(SC)c(OCC(=O)N[C@@H](C(=O)N[C@@H](CC)C(=O)O)c3ccc(O)cc3)cc2S(=O)(=O)N1 [odevixibat, 1,1-dioxo-3,3-dibutyl-5-phenyl-7-methylthio-8-(N—{(R)-α-[N—((S)-1-carboxypropyl)carbamoyl]-4-hydroxybenzyl}carbamoylmethoxy)-2,3,4,5-tetrahydro-1,2,5-benzothiadiazepine]					~30 (≈ 40.5 µM)	0.9	4	20
